In patent publication US4914125A, “(S)-emopamil for the treatment of migraine” (priority 1988, dated 1990):

How the values were obtained:
[1] = test system: increase in blood pressure induced by serotonin; test: inhibition of the increase in blood pressure induced by serotonin in the pithed rat on intravenous administration; format: in vivo, rat (male Sprague-Dawley); settings: for ED50: iv, serotonin 0.0215 mg/kg i.v., read-out: ED 50% (dose which inhibits the increase in blood pressure due to serotonin by 50%)
Procedure: The pithing is carried out by a rod through the orbit. […] The criterion of an action of a substance is the relative inhibition (δ-%) of the increase in blood pressure induced by serotonin (δmm Hg). The quantitative evaluation is by analysis of the linear regression (y =a+b x) between log dose (mg/kg) and relative inhibition (δ%) of the increase in blood pressure due to serotonin.

[2] = test system: serotonin; test: serotonin-antagonistic action on oral administration; format: in vivo; settings: (S)-emopamil vs verapamil
[3] = test system: blood/brain barrier; settings: rat, in vivo
Excerpt: (§1) The calculated BUI values indicate the cerebral uptake as a percentage of the water uptake.

[4] = test system: blood/brain barrier; test: brain uptake index (BUI) after injection into the common carotid artery of the anesthetized rat, single passage through the cerebral capillaries; settings: [14C]-labeled test substance, [3H]-labeled water as internal standard, HEPES-buffered Ringer solution pH=7.35, anesthetized rat
Excerpt: as §1

[5] = test system: serotonin; settings: by comparison with known serotonin antagonists; cited from earlier work

| Compound | antiserotonin action (in words) ([1]; compared with known serotonin antagonists and verapamil) | ED50 ([1]; pithed rat, i.v.) | serotonin-antagonistic action relative to verapamil (times) ([1]; pithed rat, i.v., (S)-emopamil vs verapamil) | superiority to verapamil in the serotonin-antagonistic action (factor) [2] | passage of the blood/brain barrier (in words) [3] | BUI value (cerebral uptake as a percentage of the water uptake) [4] | serotonin-antagonistic action (in words) [5] |
| --- | --- | --- | --- | --- | --- | --- | --- |
| CC(C)[C@@](C#N)(CCCN(C)CCc1ccccc1)c1ccccc1 [(S)-Emopamil, 2-isopropyl-5-(methyl-phenethylamino)-2-phenylvaleronitrile] | reaches the potency of known serotonin antagonists and exceeds by a multiple that of the comparison compound verapamil | 0.02 mg/kg | 18 times | 4.6 | passes the blood/brain barrier more rapidly and in considerably larger amounts than does verapamil | 110% | – |
| COc1ccc(CCN(C)CCCC(C#N)(c2ccc(OC)c(OC)c2)C(C)C)cc1OC (centres unmarked) [Verapamil, reference compound] | – | 0.36 mg/kg | – | – | – | – | weak by comparison with known serotonin antagonists |
